Assays:
Type in all cases: in vivo
[1] = test system: Asian soybean rust (Phakopsora pachyrhizi); assay: Dripping mefentrifluconazole onto primary leaf, Asian soybean rust inoculation, fresh weight of aerial part (Example 3 / Comparative Example 3); conditions: dripped onto primary leaf 0.2 mg per plant, 200 g per hectare, 14 days from inoculation
Procedure: Determinate soybean is sown to a pot filled with a soil at a sowing rate of 1,000,000 seeds per hectare. The determinate soybean is incubated for 10 days in a greenhouse, and then mefentrifluconazole dilution liquid (prepared by diluting an aqueous suspension concentrate of mefentrifluconazole with water) is dripped onto the primary leaf of determinate soybean so that the amount of mefentrifluconazole to be applied to each plant may be 0.2 mg. That is, the application rate of mefentrifluconazole is 200 g per hectare. On the next day of the application, a pathogen of Asian soybean rust (Phakopsora pachyrhizi) is inoculated to the foliage of determinate soybean. The determinate soybean is incubated in a greenhouse for 14 days from the inoculation, and then fresh weight of the aerial part of the determinate soybean is measured. It is confirmed that the fresh weight is equivalent to that of the control where determinate soybean is not treated with mefentrifluconazole and the pathogen is not inoculated (no-treatment-no-inoculation control) and is bigger than that of the control where determinate soybean is not treated with mefentrifluconazole and the pathogen is inoculated (no-treatment-inoculation control).
The same procedure of the example 3 is repeated except for replacing determinate soybean with indeterminate soybean or semi-determinate soybean. It is confirmed that the fresh weight of indeterminate soybean or semi-determinate soybean is smaller than that of the corresponding no-treatment-no-inoculation control and is equivalent to that of the corresponding no-treatment-inoculation control.

[2] = test system: Asian soybean rust (Phakopsora pachyrhizi); assay: Dripping mefentrifluconazole onto apical bud, Asian soybean rust inoculation, fresh weight of aerial part (Example 5 / Comparative Example 5); conditions: 500 g per hectare; for Treatment/control ratio (100 × A/B): dripped onto apical bud 0.5 mg per plant, 7 days from inoculation
Procedure: Two varieties of determinate soybean were sown to a pot filled with a soil at a sowing rate of 1,000,000 seeds per hectare. Then each determinate soybean was incubated for […] in a greenhouse. A mefentrifluconazole dilution liquid (prepared by diluting an aqueous suspension concentrate of mefentrifluconazole with water) is dripped onto the apical bud of determinate soybean plants so that the amount of mefentrifluconazole to be applied to each plant might be 0.5 mg. That is, the application rate of mefentrifluconazole was 500 g per hectare. Three days after the application, a pathogen of Asian soybean rust (Phakopsora pachyrhizi) was inoculated to the foliage of each determinate soybean. Each determinate soybean was incubated in a greenhouse for 7 days from the inoculation, and then fresh weight of the aerial part of each determinate soybean was measured. The fresh weight is referred to as ‘the fresh weight in treatment plot’.
As a control experiment, the same procedure was repeated except that dripping treatment with mefentrifluconazole dilution liquid and the inoculation of the pathogen were not conducted. The fresh weight obtained in the control experiment is referred to as ‘the fresh weight in control plot’.
The same procedure of the example 5 was repeated except for replacing two varieties of determinate soybean with two varieties of indeterminate soybean.

[3] = test system: Asian soybean rust (Phakopsora pachyrhizi); assay: Seed dipping with mefentrifluconazole, Asian soybean rust inoculation, fresh weight of aerial part (Example 4 / Comparative Example 4); conditions: 200 g per hectare; for Treatment/control ratio (100 × A/B): seed dipping 0.2 mg per seed, 7 days from inoculation; for Protection from the damage by the pathogen: seed dipping
Procedure: Seeds of two varieties of determinate soybean were separately dipped in a mefentrifluconazole dilution liquid (prepared by diluting an aqueous suspension concentrate of mefentrifluconazole with water) so that the amount of mefentrifluconazole to be applied to each seed might be 0.2 mg. Then, the determinate soybean seeds were sown to a pot filled with a soil at a sowing rate of 1,000,000 seeds per hectare. That is, the application rate of mefentrifluconazole was 200 g per hectare. Each determinate soybean was incubated in a greenhouse for 11 days from the sowing, and then a pathogen of Asian soybean rust (Phakopsora pachyrhizi) was inoculated to the foliage of each determinate soybean. Each determinate soybean was incubated in a greenhouse for 7 days from the inoculation, and then fresh weight of the aerial part of each determinate soybean was measured. The fresh weight is referred to as ‘the fresh weight in treatment plot’. As a control experiment, the same procedure was repeated except that dipping treatment with mefentrifluconazole dilution liquid and the inoculation of the pathogen were not conducted. The fresh weight obtained in the control experiment is referred to as ‘the fresh weight in control plot’. The same procedure of the example 4 was repeated except for replacing two varieties of determinate soybean with two varieties of indeterminate soybean.

[4] = test system: Asian soybean rust (Phakopsora pachyrhizi); assay: Foliar spray of mefentrifluconazole, Asian soybean rust inoculation, fresh weight of aerial part (Example 1 / Comparative Example 1); conditions: foliar spray 500 g per hectare, 14 days from inoculation
Procedure: Determinate soybean is sown to a pot filled with a soil. It is incubated for 7 days in a greenhouse. Mefentrifluconazole spray liquid (prepared by diluting an aqueous suspension concentrate of mefentrifluconazole with water) is uniformly sprayed onto the foliage of determinate soybean at the amount of 200 L per hectare so that the application rate of mefentrifluconazole may be 500 g per hectare. On the next day of the spraying, a pathogen of Asian soybean rust (Phakopsora pachyrhizi) is inoculated to the foliage of determinate soybean. The determinate soybean is incubated in a greenhouse for 14 days from the inoculation, and then fresh weight of the aerial part of the determinate soybean is measured. It is confirmed that the fresh weight is equivalent to that of the control where determinate soybean is not treated with mefentrifluconazole and the pathogen is not inoculated (no-treatment-no-inoculation control) and is bigger than that of the control where determinate soybean is not treated with mefentrifluconazole and the pathogen is inoculated (no-treatment-inoculation control). The same procedure of the example 1 is repeated except for replacing determinate soybean with indeterminate soybean or semi-determinate soybean. It is confirmed that the fresh weight of indeterminate soybean or semi-determinate soybean is smaller than that of the corresponding no-treatment-no-inoculation control and is equivalent to that of the corresponding no-treatment-inoculation control.

[5] = test system: Asian soybean rust (Phakopsora pachyrhizi); assay: Seed coating with mefentrifluconazole, Asian soybean rust inoculation, fresh weight of aerial part (Example 2 / Comparative Example 2); conditions: seed coating 0.2 mg per seed, 20 g per hectare, 14 days from inoculation
Procedure: Seeds of determinate soybean are coated with a mefentrifluconazole aqueous suspension concentrate so that the amount of mefentrifluconazole to be applied to each seed may be 0.2 mg. Then, the determinate soybean seeds are sown to a pot filled with a soil at a sowing rate of 100,000 seeds per hectare. That is, the application rate of mefentrifluconazole is 20 g per hectare. Then, the determinate soybean is incubated in a greenhouse for 10 days, followed by inoculating a pathogen of Asian soybean rust (Phakopsora pachyrhizi) to the foliage of determinate soybean. The determinate soybean is incubated in a greenhouse for 14 days from the inoculation, and then the fresh weight of the aerial part of the determinate soybean is measured. It is confirmed that the fresh weight is equivalent to that of the control where determinate soybean is not treated with mefentrifluconazole and the pathogen is not inoculated (no-treatment-no-inoculation control) and is bigger than that of the control where determinate soybean is not treated with mefentrifluconazole and the pathogen is inoculated (no-treatment-inoculation control). The same procedure of the example 2 is repeated except for replacing determinate soybean with indeterminate soybean or semi-determinate soybean. It is confirmed that the fresh weight of indeterminate soybean or semi-determinate soybean is smaller than that of the corresponding no-treatment-no-inoculation control and is equivalent to that of the corresponding no-treatment-inoculation control.

[6] = indeterminate or semi-determinate soybean
[7] = Kurosengoku, indeterminate soybean
[8] = Toyomusume, determinate soybean

CC(O)(Cn1cncn1)c1ccc(Oc2ccc(Cl)cc2)cc1C(F)(F)F (centres unmarked) [mefentrifluconazole]
Fresh weight of aerial part compared with no-treatment-inoculation control ([1]; determinate soybean): bigger | Fresh weight of aerial part compared with no-treatment-no-inoculation control ([1]; determinate soybean): equivalent | Fresh weight of aerial part compared with no-treatment-inoculation control [1, 6]: equivalent | Fresh weight of aerial part compared with no-treatment-no-inoculation control [1, 6]: smaller | Treatment/control ratio (100 × A/B) [2, 7]: 49 | Treatment/control ratio (100 × A/B) ([2]; Tambaguro, determinate soybean): 82 | Treatment/control ratio (100 × A/B) [2, 8]: 85 | Treatment/control ratio (100 × A/B) ([2]; Williams 82, indeterminate soybean): 39 | Protection from the damage by the pathogen ([2]; determinate versus indeterminate soybeans (Tables 3 and 4), dripped onto apical bud): protected much more effectively compared with indeterminate soybeans | Treatment/control ratio (100 × A/B) ([3]; Harosoy, indeterminate soybean): 55 | Treatment/control ratio (100 × A/B) [3, 7]: 68 | Treatment/control ratio (100 × A/B) ([3]; Tambaguro, determinate soybean): 104 | Treatment/control ratio (100 × A/B) [3, 8]: 105 | Protection from the damage by the pathogen ([3]; determinate soybean (Table 1)): successfully protected | Protection from the damage by the pathogen ([3]; indeterminate soybean (Table 2)): not successfully protected | Fresh weight of aerial part compared with no-treatment-inoculation control ([4]; determinate soybean): bigger | Fresh weight of aerial part compared with no-treatment-no-inoculation control ([4]; determinate soybean): equivalent | Fresh weight of aerial part compared with no-treatment-inoculation control [4, 6]: equivalent | Fresh weight of aerial part compared with no-treatment-no-inoculation control [4, 6]: smaller | Fresh weight of aerial part compared with no-treatment-inoculation control ([5]; determinate soybean): bigger | Fresh weight of aerial part compared with no-treatment-no-inoculation control ([5]; determinate soybean): equivalent | Fresh weight of aerial part compared with no-treatment-inoculation control [5, 6]: equivalent | Fresh weight of aerial part compared with no-treatment-no-inoculation control [5, 6]: smaller

Reference: patent US11304417B2, “Method of protecting determinate soybean from damage by a plant pathogen” (SUMITOMO CHEMICAL COMPANY, LIMITED, priority 2019, dated 2022)
